From publication PMC11851430, “Workflow for E3 Ligase Ligand Validation for PROTAC Development” (ACS Chemical Biology, 2025)

Columns and labels:
Type in all cases: binding
AURKBA = biological target: T1, AURKBA (Homo sapiens, UniProt Q96GD4); experiment: DSF assay; conditions: 20 µM compound
T1 construct: purchased in-house DSF panel (SGC-style construct names; the trailing A/B is a construct suffix)

CAMK1DA = biological target: T2, CAMK1DA (Homo sapiens, UniProt Q8IU85); experiment: DSF assay; conditions: 20 µM compound
T2 construct: purchased in-house DSF panel (SGC-style construct names; the trailing A/B is a construct suffix)
T2 sequence (Q8IU85 whole entry): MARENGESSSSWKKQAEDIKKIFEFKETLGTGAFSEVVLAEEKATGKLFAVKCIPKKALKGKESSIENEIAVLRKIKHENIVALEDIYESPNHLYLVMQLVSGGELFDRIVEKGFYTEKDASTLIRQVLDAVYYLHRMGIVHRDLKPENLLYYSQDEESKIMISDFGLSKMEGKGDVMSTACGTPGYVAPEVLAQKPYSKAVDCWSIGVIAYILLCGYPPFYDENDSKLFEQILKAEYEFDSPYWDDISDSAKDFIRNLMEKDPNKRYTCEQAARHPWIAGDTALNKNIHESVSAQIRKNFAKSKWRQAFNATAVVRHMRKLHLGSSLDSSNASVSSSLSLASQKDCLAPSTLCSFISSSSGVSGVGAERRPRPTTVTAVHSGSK

AAK1 = biological target: T3, AAK1 (Homo sapiens, UniProt Q2M2I8); experiment: Kinobeads selectivity profiling; conditions: Jurkat lysate, dose series given in nM; for Kd: read-out: Kd (apparent dissociation constant, corrected for protein depletion)
T3 construct: endogenous in cells; host or cells: Jurkat (Clone E6.1) cell lysate
T3 sequence (Q2M2I8 whole entry): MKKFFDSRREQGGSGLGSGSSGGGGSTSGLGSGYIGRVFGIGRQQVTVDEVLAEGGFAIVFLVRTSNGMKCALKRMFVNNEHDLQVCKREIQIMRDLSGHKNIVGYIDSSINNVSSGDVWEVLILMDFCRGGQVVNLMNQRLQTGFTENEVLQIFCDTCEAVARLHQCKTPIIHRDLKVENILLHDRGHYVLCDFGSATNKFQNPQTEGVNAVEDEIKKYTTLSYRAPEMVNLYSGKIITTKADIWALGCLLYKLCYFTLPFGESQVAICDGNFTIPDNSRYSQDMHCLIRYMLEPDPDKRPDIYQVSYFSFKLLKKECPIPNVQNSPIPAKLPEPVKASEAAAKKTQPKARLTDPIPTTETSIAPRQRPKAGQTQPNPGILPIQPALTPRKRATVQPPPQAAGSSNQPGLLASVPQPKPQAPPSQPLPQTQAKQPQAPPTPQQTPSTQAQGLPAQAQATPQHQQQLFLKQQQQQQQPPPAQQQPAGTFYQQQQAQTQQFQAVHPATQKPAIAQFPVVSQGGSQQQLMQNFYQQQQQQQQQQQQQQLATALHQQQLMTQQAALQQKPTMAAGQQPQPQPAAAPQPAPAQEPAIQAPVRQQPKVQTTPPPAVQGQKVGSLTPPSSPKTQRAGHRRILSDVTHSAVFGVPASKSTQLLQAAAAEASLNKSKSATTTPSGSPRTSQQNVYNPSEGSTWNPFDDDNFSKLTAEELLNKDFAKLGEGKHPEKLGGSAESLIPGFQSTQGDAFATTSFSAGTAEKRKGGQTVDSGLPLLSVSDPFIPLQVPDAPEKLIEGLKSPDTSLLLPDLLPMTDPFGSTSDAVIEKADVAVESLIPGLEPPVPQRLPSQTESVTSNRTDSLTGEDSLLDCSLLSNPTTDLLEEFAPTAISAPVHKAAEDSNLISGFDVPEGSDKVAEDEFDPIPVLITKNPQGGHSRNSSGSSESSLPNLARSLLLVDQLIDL
Description: Excitation and emission filters […]
curve. […] Measurements were
Kinobeads selectivity profiling of PROTACs
(Multiplexion, Heidelberg, Germany).
The cell lysate was ultracentrifuged and diluted
NaF, 1 mM DTT, protease inhibitors and phosphatase inhibitors to a final concentration of 5 mg/ml as determined by Bradford assay. For selectivity profiling of compounds the cell lysate (2.5 mg of total proteins per pulldown) was pre-incubated with increasing compound […]
µM) for 45 min at 4 °C in an end-over-end shaker. Subsequently, lysates were incubated with Kinobeads epsilon (17 µL settled beads) for 30 min at 4 °C. To assess the degree of protein depletion from the lysates by Kinobeads, the flow-through of the DMSO control was recovered […]
for a pulldown of pulldown experiment where the lysate was incubated a second time with fresh Kinobeads. Beads were washed in 3 steps with buffer containing 0.4%, 0.2% and no NP40.
Bound proteins were reduced with 50 mM DTT in 8 M Urea, 40 mM Tris-HCl pH 7.4 for 30 min at room temperature. After alkylation with 55 mM chloroacetamide (CAA), the Urea concentration was reduced to 1 – 2 M and proteins were digested using trypsin. Acidified peptides were desalted and concentrated using SepPak tC18 µEluation plates (Waters).
Samples were frozen, dried by vacuum centrifugation and stored at -20 °C.
LC-MS2 analysis. Peptides were measured on a Dionex Ultimate3000 nano HPLC coupled online to an Orbitrap Fusion Lumos (Thermo Fisher Scientific) mass spectrometer.
Peptides were dissolved in 0.1% formic acid and delivered to a trap column (ReproSil-pur C18-AQ, 5 μm, Dr. Maisch, 20 mm × 75 μm, self-packed) at a flow rate of 5 μL/min in LC solvent A (0.1 % formic acid).4 After 10 min of loading, peptides were transferred to an analytical column (ReproSil Gold C18-AQ, 3 μm, Dr. Maisch, 400 mm × 75 μm, self-packed) and separated using […]
acetonitrile) in LC solvent A.
The Orbitrap Fusion Lumos was operated as follows: positive polarity; spray voltage 2.1 kV, […]
A full-scan (MS1) was recorded from 360 to 1300 m/z with a resolution of 60,000 in the Orbitrap in profile mode. The MS1 AGC target was set to 4e5 and the maxIT was set to 50 ms, RF lens value was set to 50%. Based on the full scans, precursors were targeted for the MS/MS scans […]
intensity exceeded 2.5e4. The dynamic exclusion was set to 30 sec and exclude isotopes was switched on. The MS2 quadrupole isolation window was set to 1.7 m/z. Peptide fragmentation occurred in the ion routing multipole (IRM) by HCD with a fixed collision energy mode, the […]

CDK2A = biological target: T4, CDK2A (Homo sapiens, UniProt P24941); experiment: DSF assay; conditions: 20 µM compound
T4 construct: purchased in-house DSF panel (SGC-style construct names; the trailing A/B is a construct suffix)

RIOK1A = biological target: T5, RIOK1A (Homo sapiens, UniProt Q9BRS2); experiment: DSF assay; conditions: 20 µM compound
T5 construct: purchased in-house DSF panel (SGC-style construct names; the trailing A/B is a construct suffix)
T5 sequence (Q9BRS2 143-494): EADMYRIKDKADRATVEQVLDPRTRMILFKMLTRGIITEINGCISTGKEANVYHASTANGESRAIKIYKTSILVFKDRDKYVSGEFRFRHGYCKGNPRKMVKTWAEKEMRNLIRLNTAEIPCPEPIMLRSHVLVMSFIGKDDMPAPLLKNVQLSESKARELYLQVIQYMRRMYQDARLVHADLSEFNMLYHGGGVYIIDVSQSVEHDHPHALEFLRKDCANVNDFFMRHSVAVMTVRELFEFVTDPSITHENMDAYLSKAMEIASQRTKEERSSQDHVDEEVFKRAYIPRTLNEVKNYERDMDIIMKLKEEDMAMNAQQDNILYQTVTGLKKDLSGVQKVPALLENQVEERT

TTK1A = biological target: T6, TTK1A (Homo sapiens, UniProt P33981); experiment: DSF assay; conditions: 20 µM compound
T6 construct: purchased in-house DSF panel (SGC-style construct names; the trailing A/B is a construct suffix)
T6 sequence (P33981 519-808): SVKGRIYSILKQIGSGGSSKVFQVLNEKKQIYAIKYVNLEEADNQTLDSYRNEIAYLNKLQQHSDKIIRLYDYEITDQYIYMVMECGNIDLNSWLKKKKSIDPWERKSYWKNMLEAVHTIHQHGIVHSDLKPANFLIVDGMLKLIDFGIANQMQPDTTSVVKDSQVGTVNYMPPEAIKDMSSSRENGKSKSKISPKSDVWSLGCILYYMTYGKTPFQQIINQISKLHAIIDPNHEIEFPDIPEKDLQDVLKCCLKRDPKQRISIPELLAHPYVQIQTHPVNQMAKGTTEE

FESA = biological target: T7, FESA (Homo sapiens, UniProt P07332); experiment: DSF assay; conditions: 20 µM compound
T7 construct: purchased in-house DSF panel (SGC-style construct names; the trailing A/B is a construct suffix)
T7 sequence (P07332 whole entry): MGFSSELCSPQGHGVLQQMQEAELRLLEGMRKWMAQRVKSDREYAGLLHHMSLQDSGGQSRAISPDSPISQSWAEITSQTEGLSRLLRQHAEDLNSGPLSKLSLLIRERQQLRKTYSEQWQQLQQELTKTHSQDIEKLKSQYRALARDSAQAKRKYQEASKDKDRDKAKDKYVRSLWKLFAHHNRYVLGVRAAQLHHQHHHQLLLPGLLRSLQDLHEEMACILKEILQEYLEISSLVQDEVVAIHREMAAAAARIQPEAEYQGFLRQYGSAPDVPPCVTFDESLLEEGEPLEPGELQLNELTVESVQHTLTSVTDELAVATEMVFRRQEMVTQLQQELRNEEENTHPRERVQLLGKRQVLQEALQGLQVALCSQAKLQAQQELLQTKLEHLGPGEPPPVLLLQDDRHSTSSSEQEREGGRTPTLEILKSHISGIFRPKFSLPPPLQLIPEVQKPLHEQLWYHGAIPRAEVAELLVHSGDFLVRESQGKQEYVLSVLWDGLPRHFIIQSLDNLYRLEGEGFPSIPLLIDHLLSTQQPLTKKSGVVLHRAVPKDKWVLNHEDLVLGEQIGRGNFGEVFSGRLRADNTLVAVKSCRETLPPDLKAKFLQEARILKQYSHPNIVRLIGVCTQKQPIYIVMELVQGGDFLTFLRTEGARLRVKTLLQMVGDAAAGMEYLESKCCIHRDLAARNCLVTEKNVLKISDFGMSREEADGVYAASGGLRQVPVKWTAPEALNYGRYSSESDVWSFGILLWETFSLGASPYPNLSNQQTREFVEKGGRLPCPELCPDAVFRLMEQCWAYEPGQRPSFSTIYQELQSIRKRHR

MAP2K4 = biological target: T8, MAP2K4 (Homo sapiens, UniProt P45985); experiment: DSF assay; conditions: 20 µM compound
T8 construct: purchased in-house DSF panel (SGC-style construct names; the trailing A/B is a construct suffix)
T8 sequence (P45985 102-367): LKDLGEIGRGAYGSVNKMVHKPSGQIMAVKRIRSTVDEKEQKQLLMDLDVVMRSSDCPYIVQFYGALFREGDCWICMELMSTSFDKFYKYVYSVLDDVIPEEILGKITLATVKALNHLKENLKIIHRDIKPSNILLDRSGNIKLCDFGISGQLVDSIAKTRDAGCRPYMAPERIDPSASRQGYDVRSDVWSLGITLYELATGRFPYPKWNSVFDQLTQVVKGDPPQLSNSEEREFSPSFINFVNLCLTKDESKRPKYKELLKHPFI

TLK1A = biological target: T9, TLK1A (Homo sapiens, UniProt Q9UKI8); experiment: DSF assay; conditions: 20 µM compound
T9 construct: purchased in-house DSF panel (SGC-style construct names; the trailing A/B is a construct suffix)
T9 sequence (Q9UKI8 456-734): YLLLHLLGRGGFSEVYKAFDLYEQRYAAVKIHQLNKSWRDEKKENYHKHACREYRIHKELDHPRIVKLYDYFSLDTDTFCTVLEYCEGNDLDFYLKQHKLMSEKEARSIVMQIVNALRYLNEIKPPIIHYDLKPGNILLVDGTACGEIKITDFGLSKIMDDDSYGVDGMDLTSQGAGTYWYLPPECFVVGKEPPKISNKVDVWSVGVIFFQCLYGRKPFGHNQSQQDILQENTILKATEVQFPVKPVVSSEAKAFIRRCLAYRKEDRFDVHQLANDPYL

PAK4A = biological target: T10, PAK4A (Homo sapiens, UniProt O96013); experiment: DSF assay; conditions: 20 µM compound
T10 construct: purchased in-house DSF panel (SGC-style construct names; the trailing A/B is a construct suffix)
T10 sequence (O96013 291-591): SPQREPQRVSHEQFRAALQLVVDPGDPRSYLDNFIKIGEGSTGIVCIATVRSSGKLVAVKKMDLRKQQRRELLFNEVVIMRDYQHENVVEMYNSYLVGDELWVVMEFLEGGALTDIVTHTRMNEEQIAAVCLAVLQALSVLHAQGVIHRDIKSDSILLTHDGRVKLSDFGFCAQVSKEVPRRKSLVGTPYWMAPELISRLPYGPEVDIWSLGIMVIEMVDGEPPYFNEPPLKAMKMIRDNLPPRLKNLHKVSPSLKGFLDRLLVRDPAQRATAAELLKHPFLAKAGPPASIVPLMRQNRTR

AKT3A = biological target: T11, AKT3A (Homo sapiens, UniProt Q9Y243); experiment: DSF assay; conditions: 20 µM compound
T11 construct: purchased in-house DSF panel (SGC-style construct names; the trailing A/B is a construct suffix)
T11 sequence (Q9Y243 141-479): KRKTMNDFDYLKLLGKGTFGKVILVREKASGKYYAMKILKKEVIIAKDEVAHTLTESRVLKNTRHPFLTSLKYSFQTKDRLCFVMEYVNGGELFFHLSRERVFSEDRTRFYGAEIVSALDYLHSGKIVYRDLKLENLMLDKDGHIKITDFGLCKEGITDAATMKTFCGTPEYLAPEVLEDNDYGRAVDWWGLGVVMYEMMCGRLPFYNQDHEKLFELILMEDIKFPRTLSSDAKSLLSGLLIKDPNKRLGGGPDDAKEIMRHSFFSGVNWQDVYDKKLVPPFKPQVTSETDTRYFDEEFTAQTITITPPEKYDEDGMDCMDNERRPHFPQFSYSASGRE

T1 sequence (Q96GD4 whole entry): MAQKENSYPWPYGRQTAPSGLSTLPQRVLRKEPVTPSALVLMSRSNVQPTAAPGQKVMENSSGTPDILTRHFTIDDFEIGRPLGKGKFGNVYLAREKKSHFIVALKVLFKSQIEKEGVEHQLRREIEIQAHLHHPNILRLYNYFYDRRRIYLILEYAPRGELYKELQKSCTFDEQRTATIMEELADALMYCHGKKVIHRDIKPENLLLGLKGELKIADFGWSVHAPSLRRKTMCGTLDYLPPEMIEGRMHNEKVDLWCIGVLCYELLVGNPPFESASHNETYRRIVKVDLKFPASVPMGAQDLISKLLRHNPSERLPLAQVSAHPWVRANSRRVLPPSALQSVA

ΔTm at 20 µM (AURKBA) [°C]	ΔTm at 20 µM (CAMK1DA) [°C]	Kd (AAK1) [nM]	ΔTm at 20 µM (CDK2A) [°C]	ΔTm at 20 µM (RIOK1A) [°C]	ΔTm at 20 µM (TTK1A) [°C]	ΔTm at 20 µM (FESA) [°C]	ΔTm at 20 µM (MAP2K4) [°C]	ΔTm at 20 µM (TLK1A) [°C]	ΔTm at 20 µM (PAK4A) [°C]	ΔTm at 20 µM (AKT3A) [°C]	Kd (apparent dissociation constant, corrected for protein depletion) (AAK1)	SMILES
12.7	2.24	6.67	7.79	-0.05	4.14	4.19	2.65	3.45	11	0.51		CC(C)(C)OC(=O)NCCOCCOCCOCCOCCC(=O)N1CCN(c2cc(Nc3cc(C4CC4)[nH]n3)nc(Nc3ccc(CC#N)cc3)n2)CC1 [4-L]
2.62	3.86	35.5	7.86	5.35	4.18	2.67	2.91	4.52	9.26	0.12		CC(C)(C)OC(=O)NCCCOCCOCCOCCCNC(=O)c1cc(Nc2cc(C3CC3)[nH]n2)nc(Nc2ccc(CC#N)cc2)n1 [5-L]
8.24	3.94		12.5	4.9	4.46	3.17	5.55	5.4	7.87	1.18	62.7409	CCOC(=O)c1cc(Nc2cc(C3CC3)[nH]n2)nc(Nc2ccc(CC#N)cc2)n1 [compound 5]
